biological target: Sigma non-opioid intracellular receptor 1 (Homo sapiens, UniProt Q99720); experiment: Binding affinity for [3H]- pentazocine at sigma opioid receptor
Sequence (Q99720 whole entry): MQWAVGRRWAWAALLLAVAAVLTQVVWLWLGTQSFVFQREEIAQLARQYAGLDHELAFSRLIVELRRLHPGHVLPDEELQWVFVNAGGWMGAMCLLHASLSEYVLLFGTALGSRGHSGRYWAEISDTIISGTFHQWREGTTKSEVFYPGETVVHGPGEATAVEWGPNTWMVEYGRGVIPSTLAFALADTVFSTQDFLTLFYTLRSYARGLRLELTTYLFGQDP

Ki [nM]	Compound
435	CCC[C@H](C(=O)NCc1ccccc1)N1C(=O)[C@@H](CCCN)N(Cc2ccccc2)C1=O
333	CC[C@H](C)[C@H](C(=O)NCc1ccccc1)N1C(=O)[C@@H](CCCN)N(Cc2ccccc2)C1=O
3630	NCCCCC[C@@H]1C(=O)N([C@H](CC2CCCCC2)C(N)=O)C(=O)N1Cc1ccccc1
2420	CCC[C@H](C(=O)NCc1ccccc1)N1C(=O)[C@@H](CCCCCN)N(Cc2ccccc2)C1=O
125	CC[C@@H](C)[C@H](C(=O)NCc1ccccc1)N1C(=O)[C@@H](CCCCN)N(Cc2ccccc2)C1=O
62	CC[C@H](C)[C@@H](C(=O)NCc1ccccc1)N1C(=O)[C@@H](CCCCN)N(Cc2ccccc2)C1=O
406	NCCC[C@H]1C(=O)N([C@H](CC2CCCCC2)C(N)=O)C(=O)N1Cc1ccccc1
64	CCC[C@H](C(=O)NCc1ccccc1)N1C(=O)[C@H](CCCCN)N(Cc2ccccc2)C1=O
80	CCC[C@H](C(=O)NCc1ccccc1)N1C(=O)[C@@H](CCCCN)N(Cc2ccccc2)C1=O
4610	CC[C@H](C)[C@H](C(=O)NCc1ccccc1)N1C(=O)[C@@H](CCCCCN)N(Cc2ccccc2)C1=O
189	NCCCC[C@@H]1C(=O)N([C@H](CC2CCCCC2)C(N)=O)C(=O)N1Cc1ccccc1
254	NCCCC[C@@H]1C(=O)N([C@@H](CC2CCCCC2)C(N)=O)C(=O)N1Cc1ccccc1
